Consider four compounds from patent US12678428B2, “Synergistic composition for inhibiting vascular calcification” (Celagenex Research (India) Pvt. Ltd., priority 2021, dated 2026).

Data set [1] is described as follows: In vitro cytotoxicity by MTT assay in HaCaT cells. The data set is classed as cell-based. Particulars: human, HaCaT keratinocyte cells. The protocol: The in vitro cytotoxicity was performed on Human Keratinocytes (HaCaT) cell line to find the non-toxic concentrations of the test substances by MTT assay and evaluate their cytoprotective activity against advanced glycation end product (AGE) induced oxidative stress in Human Keratinocytes.
About 10 mg of the test substance was dissolved separately with 1 mL DMEM-HG supplemented with 2% inactivated FBS to obtain a stock solution of 10 mg/mL concentration and sterilized by 0.22μ syringe filtration. Dilute the stock to desired concentrations for carrying out further studies.
HaCaT (Human Keratinocytes cells) was procured from AddexBio, U.S. Stock cells were cultured in DMEM-HG supplemented with 10% inactivated Fetal Bovine Serum (FBS), penicillin (100 IU/mL), streptomycin (100 μg/mL) and amphotericin B (5 μg/mL) in humidified atmosphere of 5% CO2 at 37° C. until confluent. The cells were dissociated with TPVG solution (0.2% trypsin, 0.02% EDTA, 0.05% glucose in PBS). The stock cultures were grown in 25 cm^2 culture flasks and all experiments were carried out in 96 microtitre plates (Tarsons India Pvt. Ltd., Kolkata, India).
The cell culture monolayer was trypsinized and the cell count was adjusted to 1.0×10^5 cells/mL using DMEM-HG containing 10% FBS. To each well of the 96 well microtitre plate, 0.1 mL of the diluted cell suspension was added. After 24 hours, when a partial monolayer was formed, the supernatant was flicked off, the monolayer was washed once with PBS and 100 μL of different concentrations of test substance was added. The plate was then incubated at 37° C. for 24 hours in a 5% CO2 atmosphere, and microscopic examination was carried out and observations were noted after 24 h time.
After 24 hours of incubation, the drug solution in the wells was discarded and 50 μL of MTT in DPBS was added to each well. The plate was gently shaken and incubated for 3 hours at 37° C. in a 5% CO2 atmosphere. The supernatant was removed and 100 μL of DMSO was added and the plate was gently shaken to solubilize the formed formazan. The absorbance was measured using a micro plate reader at a wavelength of 570 nm. The percentage growth inhibition was calculated using the standard formula. The concentration of test substance, needed to inhibit the growth of the cell by 50% i.e., CTC50 values were generated from the dose-response curves.
A general note: Tetrazolium assays rely on reduction of a dye to a coloured formazan, in cell work by metabolically active cells.

For data set [2], the system named is Human Keratinocytes cell line (HaCaT). As to the kind of experiment: Cytoprotective activity against AGE (methylglyoxal) induced oxidative stress, tryphan blue dye exclusion assay. The class given is cell-based. Particulars: HaCaT cells treated with Methylglyoxal and test substance, 24 h; Metformin 5 mg; Test I 3.5 mg; Test II 0.5 mg; Test III 5 mg + 0.02 mg; Test IV 0.2 mg + 0.2 mg; Test V 3.5 mg + 0.5 mg. The protocol:
(§1) The purpose of this study is to evaluate cytoprotective activity of test substance against advanced glycation end product (AGE) induced oxidative stress in Human Keratinocytes cell line (HaCaT). About 10 mg of the test substance was dissolved separately with 1 mL DMEM-HG supplemented with 2% inactivated FBS to obtain a stock solution of 10 mg/mL concentration and sterilized by 0.22μ syringe filtration. Dilute the stock to desired concentrations for carrying out further studies. HaCaT (Human Keratinocytes cells) was procured from AddexBio, U.S. Stock cells were cultured in DMEM-HG supplemented with 10% inactivated Fetal Bovine Serum (FBS), penicillin (100 IU/mL), streptomycin (100 μg/mL) and amphotericin B (5 μg/mL) in humidified atmosphere of 5% CO2 at 37° C. until confluent. The cells were dissociated with TPVG solution (0.2% trypsin, 0.02% EDTA, 0.05% glucose in PBS). The stock cultures were grown in 25 cm^2 culture flasks and all experiments were carried out in 96 microtitre plates (Tarsons India Pvt. Ltd., Kolkata, India). [table] The monolayer cell culture was trypsinized and the cell count was adjusted to 1.5×10^5 cells/mL using DMEM-HG containing 10% FBS. To each well of the 6 well plates, 2 mL of the diluted cell suspension was added. After 24 hours, when a partial monolayer was formed, supernatant was removed and washed the monolayer once with PBS and 1 mL of different test concentrations and combinations of test substances were added. The plate was then incubated at 37° C. for 24 h in a 5% CO2 atmosphere, and microscopic examination was carried out and observations were noted after 24 hours time. After 24 hours, the media was discarded and cells were trypsinized and pelleted by centrifugation, suspended in 1 mL of fresh media and performed dye exclusion test, i.e., mixed equal volume of cells suspended media and Tryphan blue. Viable and non-viable cells were counted using haemocytometer and values were recorded, and then percentage cell viability was calculated.

Assay in data set [3]: as above
The class given is cell-based, Human. Particulars: human, HaCaT keratinocyte cells, HaCaT cells treated only with Methylglyoxal 300 μM (positive control). The protocol: as §1

Usually viability stands for the share of living cells, or the viability signal relative to a control.

As to `Cc1ncc(CO)c(CN)c1O` [2-methyl-4-aminomethyl-5-hydroxymethyl-3-Pyridinol], in data set [1] (test concentration 0.125 mg/mL), the cytotoxicity at 24 h, 0.125 mg/mL worked out at 4.55%. The cytotoxicity at 24 h, 0.25 mg/mL in data set [1] (test concentration 0.25 mg/mL) was determined as 5.68%. This compound also registered a cytotoxicity at 24 h, 0.5 mg/mL in data set [1] (test concentration 0.5 mg/mL) of 25.6%. The cytotoxicity at 24 h, 1 mg/mL in data set [1] (test concentration 1 mg/mL) is 63.4%. In data set [1] (test concentration 2 mg/mL), this compound came in with a cytotoxicity at 24 h, 2 mg/mL of 67%. The same compound returned a cytotoxicity at 24 h, 3 mg/mL in data set [1] (test concentration 3 mg/mL) of 67.5%. Besides, in data set [1] (test concentration 4 mg/mL), the cytotoxicity at 24 h, 4 mg/mL worked out at 75.8%. For the same compound, the cytotoxicity at 24 h, 5 mg/mL in data set [1] (test concentration 5 mg/mL) was determined as 76%. Further, the “% Viability” value in data set [2] was 41.23%.

Turning to `CN(C)C(=N)N=C(N)N` [Metformin, reference compound], the “% Viability” value in data set [2] was found to be 70.79%.

Regarding `CC(=O)C=O` [Methylglyoxal, reference compound], in data set [3], the viability at 24 h, 300 μM is roughly 38.8%.

For the compound `CC(=O)NCCS(=O)(=O)O.[Mg]` [Test I, Magnesium 2-acetylamino ethane sulfonic acid], the “% Viability” value in data set [2] was determined as 42.39%.
